Reference: PMC9076072 (RSC Advances, 2019)

System: RAW 264.7 macrophages
Test: Macrophage cytotoxicity seen in the anti-inflammatory assay

| SMILES | Concentration at which macrophage cytotoxicity appeared |
| --- | --- |
| C=C(C)[C@@H]1CC[C@]2(C(=O)O)CC[C@]3(C)[C@H](CC[C@@H]4[C@@]5(C)CC[C@H](O)C(C)(C)[C@@H]5CC[C@]43C)[C@@H]12 [Compound 1, Betulinic acid] | 20 µM |
| C[C@H]1[C@H](C)CC[C@]2(C(=O)O)CC[C@]3(C)C(=CC[C@@H]4[C@@]5(C)CC[C@H](O)C(C)(C)[C@@H]5CC[C@]43C)[C@H]12 [Compound 2, Ursolic acid] | 20 µM |
